Assay results taken from article PMC8523698, “Preclinical characterization of an intravenous coronavirus 3CL protease inhibitor for the potential treatment of COVID19” (Nature Communications, 2021).
pIC50: −log10 of the molar value. Where “and” joins values, the source holds several entries; their conditions need not be identical. Identical values can stand only once. Like-named read-outs stand apart in the source and are kept apart here.

Key:
[1] = Plasma protein binding by equilibrium dialysis; conditions: human plasma; for fraction unbound at 6 h, 3.44 uM / fraction unbound at 6 h: human, plasma
[2] = target: CYP2C19 (Homo sapiens, UniProt P33261); assay: Reversible CYP inhibition in human liver microsomes; conditions: for activity at 0.01 µM / activity at 0.158 µM / activity at 0.398 µM / activity at 1 µM / activity at 15.8 µM / activity at 39.8 µM / activity at 100 µM: human, microsomes, pH 7.4, Percent of Control Activity; for activity at 39.8 µM: CYP 2C19, 39.8 µM
[3] = target: CYP2D6 (Homo sapiens, UniProt P10635); assay: as above
[4] = target: T1, MATE1 (Homo sapiens, UniProt Q96FL8); assay: Transporter inhibition using transfected HEK293 cells; conditions: IC50, [14C]Metformin (20 µM)
T1 sequence (Q96FL8 1-570): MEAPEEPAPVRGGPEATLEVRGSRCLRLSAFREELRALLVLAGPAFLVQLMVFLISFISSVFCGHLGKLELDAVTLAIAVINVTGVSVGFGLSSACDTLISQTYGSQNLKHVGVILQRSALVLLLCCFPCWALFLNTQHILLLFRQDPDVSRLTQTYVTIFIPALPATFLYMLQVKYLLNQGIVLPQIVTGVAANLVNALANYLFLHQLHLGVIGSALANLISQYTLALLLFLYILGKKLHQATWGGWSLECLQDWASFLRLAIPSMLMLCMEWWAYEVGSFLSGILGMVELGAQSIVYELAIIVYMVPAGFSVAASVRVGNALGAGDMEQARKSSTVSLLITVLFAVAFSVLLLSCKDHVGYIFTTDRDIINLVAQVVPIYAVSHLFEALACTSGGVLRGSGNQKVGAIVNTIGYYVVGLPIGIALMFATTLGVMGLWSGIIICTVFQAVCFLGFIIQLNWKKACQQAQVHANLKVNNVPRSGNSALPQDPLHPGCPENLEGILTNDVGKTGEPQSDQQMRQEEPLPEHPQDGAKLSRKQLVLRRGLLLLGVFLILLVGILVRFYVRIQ

[5] = Metabolic stability and enzyme kinetics in liver S9 (conversion to PF-00835231); conditions: for PF-00835231 formation rate: Human Liver S9 0.03 mg/ml, 20 min, R1-R3; for Km at 20 min / microsomal CLint: human

CYP2C19, sequence (P33261 whole entry): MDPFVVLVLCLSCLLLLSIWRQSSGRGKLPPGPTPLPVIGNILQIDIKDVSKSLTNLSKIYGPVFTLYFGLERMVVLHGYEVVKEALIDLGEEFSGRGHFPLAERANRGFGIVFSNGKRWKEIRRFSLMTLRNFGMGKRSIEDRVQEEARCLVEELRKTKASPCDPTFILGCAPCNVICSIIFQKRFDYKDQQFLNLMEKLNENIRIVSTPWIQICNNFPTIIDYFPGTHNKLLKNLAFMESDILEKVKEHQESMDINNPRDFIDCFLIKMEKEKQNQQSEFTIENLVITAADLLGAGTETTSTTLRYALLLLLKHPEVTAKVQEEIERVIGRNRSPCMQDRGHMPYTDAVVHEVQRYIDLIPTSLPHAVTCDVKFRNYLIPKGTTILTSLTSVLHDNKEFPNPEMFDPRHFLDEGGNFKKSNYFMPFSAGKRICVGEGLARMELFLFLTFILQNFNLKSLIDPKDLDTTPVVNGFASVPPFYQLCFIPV
CYP2D6, sequence (P10635 whole entry): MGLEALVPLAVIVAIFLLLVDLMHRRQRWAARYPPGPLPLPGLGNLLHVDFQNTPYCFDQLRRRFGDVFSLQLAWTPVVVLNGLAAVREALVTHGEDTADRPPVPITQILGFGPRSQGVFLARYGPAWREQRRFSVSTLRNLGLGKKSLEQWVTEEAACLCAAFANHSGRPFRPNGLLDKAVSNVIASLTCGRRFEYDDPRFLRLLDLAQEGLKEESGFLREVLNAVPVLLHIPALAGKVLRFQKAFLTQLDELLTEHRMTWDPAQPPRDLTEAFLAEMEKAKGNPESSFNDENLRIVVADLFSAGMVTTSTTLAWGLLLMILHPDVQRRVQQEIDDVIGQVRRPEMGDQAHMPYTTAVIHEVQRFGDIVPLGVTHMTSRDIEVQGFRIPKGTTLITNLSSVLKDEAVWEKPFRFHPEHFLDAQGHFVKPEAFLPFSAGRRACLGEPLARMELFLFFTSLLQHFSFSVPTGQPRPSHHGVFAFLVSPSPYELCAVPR

For COc1cccc2[nH]c(C(=O)N[C@@H](CC(C)C)C(=O)N[C@@H](C[C@@H]3CCNC3=O)C(=O)COP(=O)(O)O)cc12 [PF-07304814], the Individual fraction unbound ([1]; 3.44 uM, replicates Day 1-3) was 0.199 and 0.194 and 0.181 and 0.192 and 0.178 and 0.182 and 0.198 and 0.168 and 0.191 and 0.180 and 0.167, the fraction unbound at 6 h, 3.44 uM ([1]; pH 7.4, Fraction unbound, Geomean, 3.44 uM, n 12) was 0.184 and the fraction unbound at 6 h, 3.44 uM ([1]; pH 7.4, Individual fraction unbound, 3.44 uM, replicates Day 1-3) was 0.186. The fraction unbound at 6 h ([1]; pH 7.4, Measured plasma fu / Human plasma fu) was 0.184, the fraction unbound at 6 h ([1]; pH 7.4, Unbound fraction fu (%CV)) was 0.184 and the fraction unbound at 6 h, 3.44 uM ([1]; pH 7.4, fraction unbound Geomean, 3.44 uM, n=12) was 0.184. For the same compound, the pIC50 [2] was less than 4.00, the “Percent of Control Activity” value ([2]; CYP 2C19, 0.01 µM, Zero-Minute Preincubation, 0.01 µM) was 94.2% and the “Percent of Control Activity” value ([2]; CYP 2C19, 0.158 µM, 30-Minute Preincubation, 0.158 µM) was 96.4%. The “Percent of Control Activity” value ([2]; CYP 2C19, 0.158 µM, Zero-Minute Preincubation, 0.158 µM) was 101.4%, the “Percent of Control Activity” value ([2]; CYP 2C19, 0.398 µM, 30-Minute Preincubation, 0.398 µM) was 100.7% and the “Percent of Control Activity” value ([2]; CYP 2C19, 0.398 µM, Zero-Minute Preincubation, 0.398 µM) was 97.9%. The “Percent of Control Activity” value ([2]; CYP 2C19, 1 µM, 30-Minute Preincubation, 1 µM) was 97.8%, the “Percent of Control Activity” value ([2]; CYP 2C19, 1 µM, Zero-Minute Preincubation, 1 µM) was 102.1% and the “Percent of Control Activity” value ([2]; CYP 2C19, 15.8 µM, 30-Minute Preincubation, 15.8 µM) was 97.1%. The “Percent of Control Activity” value ([2]; CYP 2C19, 15.8 µM, Zero-Minute Preincubation, 15.8 µM) was 107.2% and 102.9%, the “Percent of Control Activity” value ([2]; CYP 2C19, 100 µM, 30-Minute Preincubation, 100 µM) was 97.8% and 97.1% and the pIC50 ([2]; S-Mephenytoin 4′-hydroxylation, T0) was less than 4.00. For the same compound, the activity at 0.01 µM ([2]; CYP 2C19, 0.01 µM, 30-Minute Preincubation) was 103%, the activity at 0.01 µM ([2]; CYP 2C19, 0.01 µM, Zero-Minute Preincubation) was 99.3% and the activity at 0.158 µM ([2]; CYP 2C19, 0.158 µM, 30-Minute Preincubation) was 100%. It also gave an activity at 0.158 µM ([2]; CYP 2C19, 0.158 µM, Zero-Minute Preincubation) of 94.4%, an activity at 0.398 µM ([2]; CYP 2C19, 0.398 µM, 30-Minute Preincubation) of 102% and an activity at 0.398 µM ([2]; CYP 2C19, 0.398 µM, Zero-Minute Preincubation) of 96.5%. For the same compound, the activity at 1 µM ([2]; CYP 2C19, 1 µM, 30-Minute Preincubation) was 101%, the activity at 1 µM ([2]; CYP 2C19, 1 µM, Zero-Minute Preincubation) was 95.8% and the activity at 15.8 µM ([2]; CYP 2C19, 15.8 µM, 30-Minute Preincubation) was 102%. For the same compound, the activity at 15.8 µM ([2]; CYP 2C19, 15.8 µM, Zero-Minute Preincubation) was 104%, the activity at 39.8 µM ([2]; 30-Minute Preincubation) was 97.7% and the activity at 39.8 µM ([2]; Zero-Minute Preincubation) was 94.4%. For the same compound, the activity at 100 µM ([2]; CYP 2C19, 100 µM, 30-Minute Preincubation) was 95.5%, the activity at 100 µM ([2]; CYP 2C19, 100 µM, Zero-Minute Preincubation) was 91.5% and the pIC50 [3] was less than 4.00. The “Percent of Control Activity” value ([3]; CYP 2D6, 0.01 µM, 30-Minute Preincubation, 0.01 µM) was 97.3% and 99.6%, the “Percent of Control Activity” value ([3]; CYP 2D6, 0.01 µM, Zero-Minute Preincubation, 0.01 µM) was 101.0% and 93.7% and the “Percent of Control Activity” value ([3]; CYP 2D6, 0.158 µM, 30-Minute Preincubation, 0.158 µM) was 96.0%. For the same compound, the “Percent of Control Activity” value ([3]; CYP 2D6, 0.158 µM, Zero-Minute Preincubation, 0.158 µM) was 97.1% and 95.4%, the “Percent of Control Activity” value ([3]; CYP 2D6, 0.398 µM, 30-Minute Preincubation, 0.398 µM) was 95.2% and 103.0% and the “Percent of Control Activity” value ([3]; CYP 2D6, 0.398 µM, Zero-Minute Preincubation, 0.398 µM) was 98.0% and 97.1%. For the same compound, the “Percent of Control Activity” value ([3]; CYP 2D6, 1 µM, 30-Minute Preincubation, 1 µM) was 95.2% and 99.6%, the “Percent of Control Activity” value ([3]; CYP 2D6, 1 µM, Zero-Minute Preincubation, 1 µM) was 94.2% and the “Percent of Control Activity” value ([3]; CYP 2D6, 15.8 µM, 30-Minute Preincubation, 15.8 µM) was 101.2% and 99.3%. The “Percent of Control Activity” value ([3]; CYP 2D6, 15.8 µM, Zero-Minute Preincubation, 15.8 µM) was 97.0%, the “Percent of Control Activity” value ([3]; CYP 2D6, 39.8 µM, 30-Minute Preincubation, 39.8 µM) was 99.9% and 102.0% and the “Percent of Control Activity” value ([3]; CYP 2D6, 39.8 µM, Zero-Minute Preincubation, 39.8 µM) was 95.5% and 101.2%. The “Percent of Control Activity” value ([3]; CYP 2D6, 100 µM, 30-Minute Preincubation, 100 µM) was 93.7% and 95.4%, the “Percent of Control Activity” value ([3]; CYP 2D6, 100 µM, Zero-Minute Preincubation, 100 µM) was 68.1% and 92.0% and 98.1% and the pIC50 ([3]; Dextromethorphan O-demethylation, T0) was less than 4.00. The activity at 0.01 µM ([3]; human, microsomes, pH 7.4, Percent of Control Activity, CYP 2D6, 0.01 µM, 30-Minute Preincubation) was 101%, the activity at 0.01 µM ([3]; human, microsomes, pH 7.4, Percent of Control Activity, CYP 2D6, 0.01 µM, Zero-Minute Preincubation) was 99.1% and the activity at 0.158 µM ([3]; human, microsomes, pH 7.4, Percent of Control Activity, CYP 2D6, 0.158 µM, 30-Minute Preincubation) was 103%. It also gave an activity at 0.158 µM ([3]; human, microsomes, pH 7.4, Percent of Control Activity, CYP 2D6, 0.158 µM, Zero-Minute Preincubation) of 102%, an activity at 0.398 µM ([3]; human, microsomes, pH 7.4, Percent of Control Activity, CYP 2D6, 0.398 µM, 30-Minute Preincubation) of 103% and an activity at 0.398 µM ([3]; human, microsomes, pH 7.4, Percent of Control Activity, CYP 2D6, 0.398 µM, Zero-Minute Preincubation) of 101%. It also gave an activity at 1 µM ([3]; human, microsomes, pH 7.4, Percent of Control Activity, CYP 2D6, 1 µM, 30-Minute Preincubation) of 104%, an activity at 1 µM ([3]; human, microsomes, pH 7.4, Percent of Control Activity, CYP 2D6, 1 µM, Zero-Minute Preincubation) of 98.7% and an activity at 15.8 µM ([3]; human, microsomes, pH 7.4, Percent of Control Activity, CYP 2D6, 15.8 µM, 30-Minute Preincubation) of 102%. It also gave an activity at 15.8 µM ([3]; human, microsomes, pH 7.4, Percent of Control Activity, CYP 2D6, 15.8 µM, Zero-Minute Preincubation) of 106%, an activity at 39.8 µM ([3]; human, microsomes, pH 7.4, Percent of Control Activity, CYP 2D6, 39.8 µM, 30-Minute Preincubation) of 102% and an activity at 39.8 µM ([3]; human, microsomes, pH 7.4, Percent of Control Activity, CYP 2D6, 39.8 µM, Zero-Minute Preincubation) of 102%. For the same compound, the activity at 100 µM ([3]; human, microsomes, pH 7.4, Percent of Control Activity, CYP 2D6, 100 µM, 30-Minute Preincubation) was 102%, the pIC50 [4] was less than 3.52 and the PF-00835231 formation rate ([5]; substrate 0.207 µM) was 100 pmol/min/mg and 108 pmol/min/mg and 109 pmol/min/mg. For the same compound, the PF-00835231 formation rate ([5]; substrate 3.81 µM) was 923 pmol/min/mg and 978 pmol/min/mg and 975 pmol/min/mg, the PF-00835231 formation rate ([5]; substrate 16.3 µM) was 2081 pmol/min/mg and 1997 pmol/min/mg and 1964 pmol/min/mg and the PF-00835231 formation rate ([5]; substrate 33.8 µM) was 2700 pmol/min/mg and 2483 pmol/min/mg and 2383 pmol/min/mg. The PF-00835231 formation rate ([5]; substrate 70.0 µM) was 3450 pmol/min/mg and 3533 pmol/min/mg and 2817 pmol/min/mg, the Vmax ([5]; Human liver S9, best-fit, Two enzyme: MM + Unsaturable) was 2313 pmol/min/mg and the Vmax ([5]; Human, best-fit, Two enzyme: MM + Unsaturable) was 2313 pmol/min/mg. For the same compound, the Km at 20 min ([5]; human liver S9, pH 7.5, KM) was 6.23 µM, the Km at 20 min ([5]; human liver S9, pH 7.5, Km, Human liver S9, best-fit, Two enzyme: MM + Unsaturable) was 6.23 µM and the microsomal CLint ([5]; liver S9, pH 7.5, CLint total, Human liver S9, CLint total = (vmax / KM) + CL) was 381 µL/min/mg. It also gave a microsomal CLint ([5]; liver S9, pH 7.5, CLint total, Human, (vmax / KM) + CL) of 381 µL/min/mg, a microsomal CLint ([5]; liver S9, pH 7.5, CLint,2, low affinity kinetic component) of 9.96 µL/min/mg and a microsomal CLint ([5]; liver S9, pH 7.5, CLint,app) of 381 µL/min/mg. The microsomal CLint ([5]; liver S9, pH 7.5, CLintu (unbound CLint)) was 428 µL/min/mg and the microsomal CLint ([5]; liver S9, pH 7.5, Human liver S9 Clint, clearance input) was 381 µL/min/mg.
